Assays:
Details in all cases: exposure time: 72 h
E13 [1] = patient-derived glioblastoma stem cells of classical subtype; test: surviving fraction (nuclei count normalised to DMSO); higher = more cells surviving (less toxic)
E21 [2] = patient-derived glioblastoma stem cells of mesenchymal subtype; test: as above
E28 [3] = patient-derived glioblastoma stem cells of classical subtype; test: as above
E31 [4] = patient-derived glioblastoma stem cells of proneural subtype; test: as above
E34 [5] = patient-derived glioblastoma stem cells of proneural subtype; test: as above
E57 [6] = patient-derived glioblastoma stem cells of mesenchymal subtype; test: as above
FT3469 [7] = normal neural stem cell line; test: as above
E13 [8] = test: phenotypic distance (Euclidean, principal components) from DMSO controls (arbitrary units); higher = stronger morphological change
E21 [9] = test: as above
E28 [10] = test: as above
E31 [11] = test: as above
E34 [12] = test: as above
E57 [13] = test: as above
FT3469 [14] = test: as above
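For phenotypic distance (Euclidean, principal components) from DMSO controls in this document: cell Painting imaging in 384-well plates, CellProfiler features reduced to at least 20 principal components, Euclidean distance versus same-plate DMSO vehicle wells (0.1% v/v), median over six images per well.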
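For surviving fraction (nuclei count normalised to DMSO) in this document: nuclei counted by high-content imaging of Hoechst-stained cells in laminin-coated 384-well plates, relative to 0.1% DMSO vehicle wells, with staurosporine as cell-death control.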

C[C@@H](O[C@H]1OCCN(Cc2n[nH]c(=O)[nH]2)[C@H]1c1ccc(F)cc1)c1cc(C(F)(F)F)cc(C(F)(F)F)c1 [Aprepitant]
Details | phenotypic distance | surviving fraction
E13 [1], 4.1 nM | – | 0.928
E13 [1], 12.3 nM | – | 0.902
E13 [1], 37 nM | – | 0.98
E13 [1], 111.1 nM | – | 0.996
E13 [1], 333.3 nM | – | 0.901
E13 [1], 1000 nM | – | 0.903
E13 [1], 3000 nM | – | 0.856
E13 [8], 4.1 nM | 0.787 | –
E13 [8], 12.3 nM | 0.437 | –
E13 [8], 37 nM | 0.522 | –
E13 [8], 111.1 nM | 0.344 | –
E13 [8], 333.3 nM | 0.93 | –
E13 [8], 1000 nM | 0.532 | –
E13 [8], 3000 nM | 1.13 | –
E21 [2], 4.1 nM | – | 1.02
E21 [2], 12.3 nM | – | 0.857
E21 [2], 37 nM | – | 0.96
E21 [2], 111.1 nM | – | 1.02
E21 [2], 333.3 nM | – | 1.02
E21 [2], 1000 nM | – | 0.955
E21 [2], 3000 nM | – | 0.913
E21 [9], 4.1 nM | 3.49 | –
E21 [9], 12.3 nM | 1.08 | –
E21 [9], 37 nM | 0.937 | –
E21 [9], 111.1 nM | 0.517 | –
E21 [9], 333.3 nM | 0.679 | –
E21 [9], 1000 nM | 0.478 | –
E21 [9], 3000 nM | 1.36 | –
E28 [3], 4.1 nM | – | 0.85
E28 [3], 12.3 nM | – | 1.09
E28 [3], 37 nM | – | 0.982
E28 [3], 111.1 nM | – | 1.03
E28 [3], 333.3 nM | – | 0.935
E28 [3], 1000 nM | – | 1.03
E28 [3], 3000 nM | – | 0.879
E28 [10], 4.1 nM | 0.614 | –
E28 [10], 12.3 nM | 0.686 | –
E28 [10], 37 nM | 0.613 | –
E28 [10], 111.1 nM | 0.671 | –
E28 [10], 333.3 nM | 0.788 | –
E28 [10], 1000 nM | 0.862 | –
E28 [10], 3000 nM | 0.675 | –
E31 [4], 4.1 nM | – | 1.03
E31 [4], 12.3 nM | – | 0.789
E31 [4], 37 nM | – | 1.01
E31 [4], 111.1 nM | – | 0.981
E31 [4], 333.3 nM | – | 1.07
E31 [4], 1000 nM | – | 1.04
E31 [4], 3000 nM | – | 1
E31 [11], 4.1 nM | 0.696 | –
E31 [11], 12.3 nM | 1.23 | –
E31 [11], 37 nM | 0.463 | –
E31 [11], 111.1 nM | 0.647 | –
E31 [11], 333.3 nM | 1.03 | –
E31 [11], 1000 nM | 0.986 | –
E31 [11], 3000 nM | 1.02 | –
E34 [5], 4.1 nM | – | 1.01
E34 [5], 12.3 nM | – | 1.01
E34 [5], 37 nM | – | 0.914
E34 [5], 111.1 nM | – | 1.03
E34 [5], 333.3 nM | – | 0.934
E34 [5], 1000 nM | – | 0.948
E34 [5], 3000 nM | – | 0.963
E34 [12], 4.1 nM | 0.513 | –
E34 [12], 12.3 nM | 0.635 | –
E34 [12], 37 nM | 0.742 | –
E34 [12], 111.1 nM | 0.53 | –
E34 [12], 333.3 nM | 0.573 | –
E34 [12], 1000 nM | 0.615 | –
E34 [12], 3000 nM | 1.13 | –
E57 [6], 4.1 nM | – | 0.865
E57 [6], 12.3 nM | – | 1.03
E57 [6], 37 nM | – | 1.02
E57 [6], 111.1 nM | – | 0.945
E57 [6], 333.3 nM | – | 0.985
E57 [6], 1000 nM | – | 1.07
E57 [6], 3000 nM | – | 0.96
E57 [13], 4.1 nM | 0.607 | –
E57 [13], 12.3 nM | 0.891 | –
E57 [13], 37 nM | 0.573 | –
E57 [13], 111.1 nM | 0.373 | –
E57 [13], 333.3 nM | 0.479 | –
E57 [13], 1000 nM | 1.04 | –
E57 [13], 3000 nM | 1.13 | –
FT3469 [7], 4.1 nM | – | 0.843
FT3469 [7], 12.3 nM | – | 0.823
FT3469 [7], 37 nM | – | 0.935
FT3469 [7], 111.1 nM | – | 0.829
FT3469 [7], 333.3 nM | – | 0.999
FT3469 [7], 1000 nM | – | 0.797
FT3469 [7], 3000 nM | – | 0.929
FT3469 [14], 4.1 nM | 0.824 | –
FT3469 [14], 12.3 nM | 0.817 | –
FT3469 [14], 37 nM | 0.96 | –
FT3469 [14], 111.1 nM | 0.816 | –
FT3469 [14], 333.3 nM | 0.735 | –
FT3469 [14], 1000 nM | 0.537 | –
FT3469 [14], 3000 nM | 0.788 | –

Source: the supplement of paper PMC13207355
